In patent US11214803B2, “Modulators of YAP1 expression” (Ionis Pharmaceuticals, Inc., priority 2019, dated 2022):
Strand notation (5' to 3'): a small letter for the sugar, then the base; units joined by * are phosphorothioate-linked, units joined directly phosphodiester-linked; [ ] holds rarer units or linkages, { } end groups; capitals alone tell only the bases. k = constrained ethyl (cEt); [5mC] = 5-methylcytosine; d = 2'-deoxy (DNA)

These substances were tested on Yap1 mRNA (assay: Antisense inhibition of human Yap1 in A-431 cells by cEt gapmers, single dose (Example 1, RTS4814)). Details: A-431 cells, 5,000 cells per well, free uptake, 2,000 nM modified oligonucleotide, approx. 48 hours, RTS4814, normalized to RIBOGREEN; Table 3.
Assay type: cell-based
Description: Modified oligonucleotides were designed to target a Yap1 nucleic acid and were tested for their effect on Yap1 mRNA level in vitro. The modified oligonucleotides were tested in a series of experiments that had similar culture conditions. Cultured A-431 cells at a density of 5,000 cells per well were treated using free uptake with 2,000 nM of modified oligonucleotide. After a treatment period of approximately 48 hours, RNA was isolated from the cells and Yap1 mRNA levels were measured by quantitative real-time RTPCR. Human primer probe set RTS4814 (forward sequence […], designated herein as SEQ ID NO.: 11; reverse sequence […], designated herein as SEQ ID NO.: 12; probe sequence […], designated herein as SEQ ID NO.: 13) was used to measure mRNA levels. Yap1 mRNA levels were normalized to total RNA content, as measured by RIBOGREEN®. Results are presented in the tables below as percent control of the amount of Yap1 mRNA relative to untreated control cells (% UTC). The modified oligonucleotides with percent control values marked with an asterisk (*) target the amplicon region of the primer probe set. Additional assays may be used to measure the potency and efficacy of the modified oligonucleotides targeting the amplicon region.
The newly designed modified oligonucleotides in the Tables below were designed as 3-10-3 cEt gapmers. The gapmers are 16 nucleosides in length, wherein the central gap segment comprises of ten 2′-deoxynucleosides and is flanked by wing segments on the 5′ direction and the 3′ direction comprising three nucleosides each. Each nucleoside in the 5′ wing segment and each nucleoside in the 3′ wing segment has a cEt sugar modification. The internucleoside linkages throughout each gapmer are phosphorothioate (P═S) linkages. All cytosine residues throughout each gapmer are 5-methylcytosines.
“Start site” indicates the 5′-most nucleoside to which the gapmer is targeted in the human gene sequence. “Stop site” indicates the 3′-most nucleoside to which the gapmer is targeted human gene sequence. […] Activity of the modified oligonucleotide may be defined in a different experiment.

First: 715525 (kT*kT*kA*d[5mC]*dT*dT*dT*dA*dA*dG*dA*dA*dG*kT*kA*kT; antisense) [Compound 715525]
Second: 715408 (kG*k[5mC]*kG*dG*d[5mC]*dT*dT*dG*dA*dA*dG*dA*dA*kG*kG*kA; antisense) [Compound 715408]
The “YAP1 (% UTC)” value of the first is higher: 100 % UTC for the first, 60 % UTC for the second.

First: 715537 (kA*k[5mC]*kT*dT*dG*dG*d[5mC]*dA*d[5mC]*d[5mC]*dA*dA*dA*kA*kG*k[5mC]; antisense) [Compound 715537]
Second: 715510 (antisense kA*kT*kT*dT*dG*d[5mC]*dT*dG*dT*dG*d[5mC]*dT*dG*kG*kG*kA) [Compound 715510]
The “YAP1 (% UTC)” value of the first is higher: 122 % UTC for the first, 22 % UTC for the second.

In the case of “715492 (antisense kG*k[5mC]*kT*dA*dG*d[5mC]*dT*dG*dG*dT*dG*d[5mC]*d[5mC]*kA*k[5mC]*kT) [Compound 715492]”, the “YAP1 (% UTC)” value is reported as 76 % UTC.

Same assay, conditions: Table 1; A-431 cells, free uptake, 2,000 nM, approximately 48 hours, RTS4814; Yap1 mRNA relative to untreated control cells

Going from “715400 (k[5mC]*kT*k[5mC]*d[5mC]*dG*dA*dG*dT*d[5mC]*d[5mC]*d[5mC]*d[5mC]*dG*k[5mC]*kG*kG; antisense) [Compound 715400]” to “715553 (kA*kG*kA*dA*dA*dT*dA*dG*dG*dA*dA*dG*dT*kT*kG*kT; antisense) [Compound 715553]”, the “YAP1 (% UTC)” value falls from 107 % UTC to 90 % UTC.

Compared with “715520 (kT*kT*k[5mC]*dT*dT*dT*d[5mC]*d[5mC]*dA*d[5mC]*dT*d[5mC]*dA*kA*kG*kT; antisense) [Compound 715520]”, “715577 (kG*k[5mC]*kA*dT*dT*d[5mC]*dA*d[5mC]*dA*dG*dA*dG*dT*kT*kA*kA; antisense) [Compound 715577]” is lower in “YAP1 (% UTC)” value: 122 % UTC for the first, 21 % UTC for the second.

Compared with “715478 (antisense kA*k[5mC]*k[5mC]*dA*dT*dT*dA*dT*dT*dA*d[5mC]*dT*d[5mC]*k[5mC]*kT*kG) [Compound 715478]”, “715625 (antisense kA*kT*kT*dG*d[5mC]*d[5mC]*dT*dA*dA*dG*dA*dG*dT*kA*kA*kA) [Compound 715625]” is higher in “YAP1 (% UTC)” value: 7 % UTC for the first, 99 % UTC for the second.

Going from “715559 (k[5mC]*kT*kG*d[5mC]*d[5mC]*dA*dT*dT*dT*dA*dA*dG*dA*kA*kA*kT; antisense) [Compound 715559]” to “715616 (antisense kG*kA*k[5mC]*dG*dG*dA*dT*dA*dA*dA*dA*dA*dT*kT*kA*k[5mC]) [Compound 715616]”, the “YAP1 (% UTC)” value falls from 114 % UTC to 95 % UTC.

With “715595 (antisense kT*k[5mC]*kA*dT*dG*dG*d[5mC]*dT*dG*dA*dA*dA*dT*kG*kA*kA) [Compound 715595]” the “YAP1 (% UTC)” value was 104 % UTC.

Same assay, conditions: Table 2; A-431 cells, free uptake, 2,000 nM, approximately 48 hours, RTS4814; Yap1 mRNA relative to untreated control cells

Compared with “715605 (antisense k[5mC]*kA*kT*dA*dG*d[5mC]*dA*d[5mC]*dA*dG*dA*dA*dT*kT*k[5mC]*k[5mC]) [Compound 715605]”, “715584 (kG*kG*kT*d[5mC]*dT*dG*dG*dA*dA*d[5mC]*dA*dG*dA*kT*kT*kA; antisense) [Compound 715584]” is lower in “YAP1 (% UTC)” value: 112 % UTC for the first, 96 % UTC for the second.

First: 715434 (antisense kT*k[5mC]*kT*dT*dG*dT*dT*d[5mC]*dT*dT*dA*dT*dG*kG*kT*kT) [Compound 715434]
Second: 715437 (antisense k[5mC]*kA*kT*dG*dG*d[5mC]*dA*dA*dA*dA*d[5mC]*dG*dA*kG*kG*kG) [Compound 715437]
The “YAP1 (% UTC)” value of the first is lower: 31 % UTC for the first, 89 % UTC for the second.

Going from “715530 (kA*kA*k[5mC]*d[5mC]*dT*dG*dG*dT*dT*dT*dG*dT*dT*kT*k[5mC]*k[5mC]; antisense) [Compound 715530]” to “715515 (kT*kA*kT*dG*dA*dG*dT*d[5mC]*dA*dA*d[5mC]*d[5mC]*dT*kG*k[5mC]*kA; antisense) [Compound 715515]”, the “YAP1 (% UTC)” value rises from 61 % UTC to 94 % UTC.

Going from “715518 (kT*kT*kT*dG*dG*dG*d[5mC]*dA*dA*dA*dG*dT*dT*k[5mC]*k[5mC]*kT; antisense) [Compound 715518]” to “715512 (antisense kA*kG*kG*d[5mC]*dG*d[5mC]*dG*d[5mC]*dG*d[5mC]*dA*dT*dT*kG*kT*kG) [Compound 715512]”, the “YAP1 (% UTC)” value rises from 60 % UTC to 97 % UTC.
